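In this assay, cells in 96-well plates receive the compound at five concentrations for 48 hours. Endpoints are linearly interpolated between the surrounding concentrations. GI50 is the concentration that inhibits growth by half.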 Activity calls are given as the source filed them. No stated cut-off is given here; in the data, active = GI50 up to about 1.1 µM and inactive = higher.
Assays:
Test in all cases: NCI tumour cell line growth inhibition, 48 h
786-0 = tested on: 786-0
A549 = tested on: A549
BT-549 = tested on: BT-549
CAKI-1 = tested on: CAKI-1
HCC 2998 = tested on: HCC 2998
IGROV-1 = tested on: IGROV-1
K562 = tested on: K562
MDA-MB-231 = tested on: MDA-MB-231
MDA-N = tested on: MDA-N
NCI-H460 = tested on: NCI-H460
NCI-H522 = tested on: NCI-H522
OVCAR-3 = tested on: OVCAR-3
OVCAR-5 = tested on: OVCAR-5
RXF 393 = tested on: RXF 393
SF-268 = tested on: SF-268
SF-539 = tested on: SF-539
SK-MEL-28 = tested on: SK-MEL-28
SK-OV-3 = tested on: SK-OV-3
SR = tested on: SR
UACC-257 = tested on: UACC-257

## COc1cc(C2c3cc4c(cc3OC(C)(N3CCCC3)C2C)OCO4)cc(OC)c1OC (stereo not given)
786-0
  GI50: 0.428 µM (active)
A549
  GI50: 0.515 µM (active)
BT-549
  GI50: 0.232 µM (active)
CAKI-1
  GI50: 1.09 µM (active)
HCC 2998
  GI50: 0.389 µM (active)
IGROV-1
  GI50: 0.435 µM (active)
K562
  GI50: 0.197 µM (active)
MDA-MB-231
  GI50: 0.551 µM (active)
MDA-N
  GI50: 0.154 µM (active)
NCI-H460
  GI50: 0.473 µM (active)
NCI-H522
  GI50: 0.209 µM (active)
OVCAR-3
  GI50: 0.203 µM (active)
OVCAR-5
  GI50: 0.49 µM (active)
RXF 393
  GI50: 0.256 µM (active)
SF-268
  GI50: 0.714 µM (active)
SF-539
  GI50: 0.229 µM (active)
SK-MEL-28
  GI50: 0.798 µM (active)
SK-OV-3
  GI50: 0.391 µM (active)
SR
  GI50: 0.0931 µM (active)
UACC-257
  GI50: 0.437 µM (active)

## COc1ccc2[nH]c3c(C)c4ccnc(NCCCN(C)CCCNc5ccc([N+](=O)[O-])c6[nH]c7ccccc7c(=O)c56)c4c(C)c3c2c1
786-0
  GI50: 0.0244 µM (active)
A549
  GI50: 0.0372 µM (active)
BT-549
  GI50: 0.678 µM (active)
CAKI-1
  GI50: 0.466 µM (active)
HCC 2998
  GI50: 0.0178 µM (active)
IGROV-1
  GI50: 0.0291 µM (active)
K562
  GI50: 0.00652 µM (active)
MDA-MB-231
  GI50: 0.621 µM (active)
MDA-N
  GI50: 0.372 µM (active)
NCI-H460
  GI50: 0.025 µM (active)
NCI-H522
  GI50: 0.0235 µM (active)
OVCAR-3
  GI50: 0.607 µM (active)
OVCAR-5
  GI50: 0.607 µM (active)
RXF 393
  GI50: 0.0396 µM (active)
SF-268
  GI50: 0.52 µM (active)
SF-539
  GI50: 0.106 µM (active)
SK-MEL-28
  GI50: 0.887 µM (active)
SK-OV-3
  GI50: 0.76 µM (active)
SR
  GI50: 0.0114 µM (active)
UACC-257
  GI50: 0.655 µM (active)

## COc1cccc(C2c3cc4c(cc3OC(NNC(N)=O)C2C)OCO4)c1OC (stereo not given)
786-0
  GI50: 4.76 µM (inactive)
A549
  GI50: 19.6 µM (inactive)
BT-549
  GI50: 20.1 µM (inactive)
CAKI-1
  GI50: 24.5 µM (inactive)
HCC 2998
  GI50: 32 µM (inactive)
IGROV-1
  GI50: 23.7 µM (inactive)
K562
  GI50: 19.5 µM (inactive)
MDA-MB-231
  GI50: 31.7 µM (inactive)
MDA-N
  GI50: 18 µM (inactive)
NCI-H460
  GI50: 23.1 µM (inactive)
NCI-H522
  GI50: 20.4 µM (inactive)
OVCAR-3
  GI50: 17.5 µM (inactive)
OVCAR-5
  GI50: 34.1 µM (inactive)
RXF 393
  GI50: 14.1 µM (inactive)
SF-268
  GI50: 27.7 µM (inactive)
SF-539
  GI50: 15.4 µM (inactive)
SK-MEL-28
  GI50: 21.4 µM (inactive)
SK-OV-3
  GI50: 34.2 µM (inactive)
SR
  GI50: 0.431 µM (active)
UACC-257
  GI50: 27.3 µM (inactive)

## COc1cc(C2CC(C)(Nc3ccccc3)Oc3cc4c(cc32)OCO4)cc(OC)c1OC (stereo not given)
786-0
  GI50: 0.298 µM (active)
A549
  GI50: 2.14 µM (inactive)
BT-549
  GI50: 0.506 µM (active)
CAKI-1
  GI50: 0.478 µM (active)
HCC 2998
  GI50: 0.729 µM (active)
IGROV-1
  GI50: 0.386 µM (active)
K562
  GI50: 0.0933 µM (active)
MDA-MB-231
  GI50: 0.853 µM (active)
MDA-N
  GI50: 0.0412 µM (active)
NCI-H460
  GI50: 0.327 µM (active)
NCI-H522
  GI50: 0.296 µM (active)
OVCAR-3
  GI50: 0.219 µM (active)
OVCAR-5
  GI50: 2.71 µM (inactive)
RXF 393
  GI50: 0.222 µM (active)
SF-268
  GI50: 4.58 µM (inactive)
SF-539
  GI50: 0.171 µM (active)
SK-MEL-28
  GI50: 0.254 µM (active)
SK-OV-3
  GI50: 0.394 µM (active)
SR
  GI50: 0.239 µM (active)
UACC-257
  GI50: 2.2 µM (inactive)

## Cc1cc(=O)oc2cc3oc(N(C)c4ccccc4)nc(=O)c3cc12
786-0
  GI50: > 100 µM (inactive)
A549
  GI50: > 100 µM (inactive)
BT-549
  GI50: 50.2 µM (inactive)
CAKI-1
  GI50: > 100 µM (inactive)
HCC 2998
  GI50: > 100 µM (inactive)
IGROV-1
  GI50: > 100 µM (inactive)
K562
  GI50: > 100 µM (inactive)
MDA-MB-231
  GI50: > 100 µM (inactive)
MDA-N
  GI50: > 100 µM (inactive)
NCI-H460
  GI50: > 100 µM (inactive)
NCI-H522
  GI50: 58.9 µM (inactive)
OVCAR-3
  GI50: > 100 µM (inactive)
OVCAR-5
  GI50: > 100 µM (inactive)
RXF 393
  GI50: > 100 µM (inactive)
SF-268
  GI50: 40.9 µM (inactive)
SF-539
  GI50: > 100 µM (inactive)
SK-MEL-28
  GI50: > 100 µM (inactive)
SK-OV-3
  GI50: > 100 µM (inactive)
SR
  GI50: 82.2 µM (inactive)
UACC-257
  GI50: > 100 µM (inactive)

## C1CCN2CC34CC(CC5CCCN(C6CCCC3N6)C54)C2C1 (stereo not given)
786-0
  GI50: 84.7 µM (inactive)
A549
  GI50: > 100 µM (inactive)
BT-549
  GI50: > 100 µM (inactive)
CAKI-1
  GI50: > 100 µM (inactive)
HCC 2998
  GI50: > 100 µM (inactive)
IGROV-1
  GI50: > 100 µM (inactive)
K562
  GI50: > 100 µM (inactive)
MDA-MB-231
  GI50: > 100 µM (inactive)
MDA-N
  GI50: > 100 µM (inactive)
NCI-H460
  GI50: > 100 µM (inactive)
NCI-H522
  GI50: > 100 µM (inactive)
OVCAR-3
  GI50: > 100 µM (inactive)
OVCAR-5
  GI50: > 100 µM (inactive)
RXF 393
  GI50: 78.9 µM (inactive)
SF-268
  GI50: > 100 µM (inactive)
SF-539
  GI50: > 100 µM (inactive)
SK-MEL-28
  GI50: > 100 µM (inactive)
SK-OV-3
  GI50: > 100 µM (inactive)
SR
  GI50: > 100 µM (inactive)
UACC-257
  GI50: > 100 µM (inactive)

## CCC/C=C/C=C/C(=O)OC1C(C)C2(O)C3C=C(C)C(=O)C3CC(COC(C)=O)=CC2C2C(C)(C)C12OC(=O)C(C)C (stereo not given)
786-0
  GI50: 9.62 µM (inactive)
A549
  GI50: 0.406 µM (active)
BT-549
  GI50: 20.7 µM (inactive)
CAKI-1
  GI50: 0.83 µM (active)
HCC 2998
  GI50: 0.329 µM (active)
IGROV-1
  GI50: 16.8 µM (inactive)
K562
  GI50: 0.091 µM (active)
MDA-MB-231
  GI50: 3.92 µM (inactive)
MDA-N
  GI50: 0.29 µM (active)
NCI-H460
  GI50: 3.08 µM (inactive)
NCI-H522
  GI50: 13.4 µM (inactive)
OVCAR-3
  GI50: 17.1 µM (inactive)
OVCAR-5
  GI50: 26.1 µM (inactive)
RXF 393
  GI50: 17.5 µM (inactive)
SF-268
  GI50: 13.8 µM (inactive)
SF-539
  GI50: 11.7 µM (inactive)
SK-MEL-28
  GI50: 13 µM (inactive)
SK-OV-3
  GI50: 53.1 µM (inactive)
SR
  GI50: 10.7 µM (inactive)
UACC-257
  GI50: 16.7 µM (inactive)

## Cc1nn(C(=O)c2ccccc2O)c2c1C(c1ccccc1)SC(=N)N2 (stereo not given)
786-0
  GI50: 1.57 µM (inactive)
A549
  GI50: 0.6 µM (active)
BT-549
  GI50: > 10 µM (inactive)
CAKI-1
  GI50: 0.547 µM (active)
HCC 2998
  GI50: 7.69 µM (inactive)
IGROV-1
  GI50: 0.481 µM (active)
K562
  GI50: 0.413 µM (active)
MDA-MB-231
  GI50: 0.811 µM (active)
MDA-N
  GI50: 1.2 µM (inactive)
NCI-H460
  GI50: 3.64 µM (inactive)
NCI-H522
  GI50: 3.19 µM (inactive)
OVCAR-3
  GI50: 1.79 µM (inactive)
OVCAR-5
  GI50: 6.08 µM (inactive)
RXF 393
  GI50: > 10 µM (inactive)
SF-268
  GI50: 3.27 µM (inactive)
SF-539
  GI50: 0.214 µM (active)
SK-MEL-28
  GI50: > 10 µM (inactive)
SK-OV-3
  GI50: 5.6 µM (inactive)
SR
  GI50: 2.42 µM (inactive)
UACC-257
  GI50: 2.01 µM (inactive)

From ChEMBL document CHEMBL1201862, “PubChem BioAssay data set” (2004)
